This passage reports melting point and IC50 results from patent US6710047B2, “Phthalazines with angiogenesis inhibiting activity” (Novartis AG, priority 1997, dated 2004).

In series [1] the target is T1, Flt-1 VEGF-receptor tyrosine kinase (Homo sapiens, UniProt P17948).
T1 sequence (P17948 827-1158 limits assumed): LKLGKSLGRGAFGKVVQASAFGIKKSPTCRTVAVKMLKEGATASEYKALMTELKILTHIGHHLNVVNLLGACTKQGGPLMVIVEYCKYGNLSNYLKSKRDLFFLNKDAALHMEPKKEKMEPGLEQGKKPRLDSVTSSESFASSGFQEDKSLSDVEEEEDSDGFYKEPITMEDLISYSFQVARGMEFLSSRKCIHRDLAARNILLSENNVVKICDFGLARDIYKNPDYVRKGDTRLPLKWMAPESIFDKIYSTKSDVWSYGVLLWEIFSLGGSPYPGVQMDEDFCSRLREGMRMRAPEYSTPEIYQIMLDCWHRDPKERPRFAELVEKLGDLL
In words: Test for activity against Flt-1 VEGF-receptor tyrosine kinase.
Method: Test for activity against VEGF-receptor tyrosine kinase. The test is conducted using Flt-1 VEGF-receptor tyrosine kinase. […] The reaction is then ended by the addition of 10 μl 0.25 M ethylenediaminetetraacetate (EDTA) pH 7. Using a multichannel dispenser (LAB SYSTEMS, USA), an aliquot of 20 μl is applied to a PVDF (=polyvinyl difluoride) Immobilon P membrane (Millipore, USA), incorporating a Millipore microtiter filter manifold, and connected to a vacuum.
The test is conducted using Flt-1 VEGF-receptor tyrosine kinase, as described hereinabove.

The target in a further series is PDGF-receptor kinase. Kind of series: Inhibition of PDGF-receptor kinase (method of Trinks et al.). It counts as biochemical. The protocol: An inhibitory effect can also be found especially on PDGF-receptor kinase, which is determined according to the method described by Trinks et al. (see J. Med. Chem. 37(7): 1015-27 [1994]). Inhibitory activity is shown here in the micromolar range using a compound of formula I (or an N-oxide thereof); […]

Each structure is given as a SMILES string. Structures can show the parent of a compound that is named as a salt.

Compound `FC(F)(F)c1ccc(Nc2nnc(Cc3ccncc3)c3ccccc23)cc1` [Example 16, 1-(4-Trifluoromethylanilino)-4-(4-pyridylmethyl)phthalazine] came in with a melting point of 205 to 206 °C. Moreover, the IC50 in series [1] came out at 520 nM.

`CCOc1cccc(Nc2nnc(Cc3ccncc3)c3ccccc23)c1` [Example 67F] had a melting point of 193 to 195 °C. For the same compound, in series [1], half-maximal inhibition (IC50) was put at 1200 nM.

`CC(=O)c1ccc(Nc2nnc(Cc3ccncc3)c3ccccc23)cc1O` [Example 69] displayed a melting point of 234 to 236 °C. The IC50 in series [1] is 742 nM.

In the case of `COc1ccc(Oc2nnc(Cc3ccncc3)c3ccccc23)cc1` [Example 72D], the melting point was in the range of 194 to 196 °C. Also, in series [1], the IC50 turned out to be 593 nM.

In turn, `N#Cc1ccc(Nc2nnc(Cc3ccncc3)c3ccccc23)cc1` [Example 24, 1-(4-Cyanoanilino)-4-(4-pyridylmethyl)phthalazine] gave a melting point of 228 to 230 °C. This compound also had an IC50 in series [1] of 666 nM.

Compound `Brc1ccc(Nc2nnc(Cc3ccncc3)c3ccccc23)cc1` [Example 22, 1-(4-Bromoanilino)-4-(4-pyridylmethyl)phthalazine] yielded a melting point of 201 to 202 °C. Besides, in series [1], the half-maximal inhibitory concentration (IC50) is 180 nM.

For the compound `Fc1cc(Cl)ccc1Nc1nnc(Cc2ccncc2)c2ccccc12` [Example 44D, 1-(4-Chloro-2-fluoroanilino)-4-(4-pyridylmethyl)phthalazine], the melting point was in the range of 157 to 159 °C. In series [1], this compound had an IC50 of 317 nM.

With `Fc1ccc(Nc2nnc(Cc3ccncc3)c3ccccc23)cc1` [Example 17, 1-(4-Fluoroanilino)-4-(4-pyridylmethyl)phthalazine], the melting point lay in the range of 129 to 131 °C. In series [1], the IC50 was 290 nM.

In the case of `CCCc1ccc(Nc2nnc(Cc3ccncc3)c3ccccc23)cc1` [Example 44B, 1-(4-Propylanilino)-4-(4-pyridylmethyl)phthalazine], the melting point is 180 to 181 °C. The IC50 in series [1] is 234 nM.

As for `FC(F)(F)Oc1cccc(Nc2nnc(Cc3ccncc3)c3ccccc23)c1` [Example 67H], the melting point fell in the range of 176 to 178 °C. Moreover, the IC50 in series [1] was 615 nM.

`Cc1ccc(Nc2nnc(Cc3ccncc3)c3ccccc23)cc1C` [Example 45]: the melting point was in the range of 180 to 181 °C. Further, half-maximal inhibition in series [1] (IC50) required 345 nM.

Turning to `CS(=O)(=O)O.CS(=O)(=O)O.CS(=O)(=O)O.Nc1cccc(Nc2nnc(Cc3ccncc3)c3ccccc23)c1` [Example 20, 1-(3-Aminoanilino)-4-(4-pyridylmethyl)phthalazine trimesylate], the melting point was 249 to 251 °C. This compound also gave an IC50 in series [1] of 500 nM.

The compound `Cc1ccc(Oc2nnc(Cc3ccncc3)c3ccccc23)cc1` [Example 72C] showed a melting point of 175 to 176 °C. The same compound came in with an IC50 in series [1] of 747 nM.

In turn, `Clc1ccc(Nc2nnc(OCc3ccncc3)c3ccccc23)cc1` [Example 50, 1-(4-Chloroanilino)-4-(4-pyridylmethoxy)phthalazine] returned a melting point of 139 to 141 °C. In series [1], the IC50 was 195 nM.

Turning to `Clc1ccc(Nc2nnc(Cc3ccncc3)c3cnccc23)cc1` [Example 75, 1-(4-Chloroanilino)-4-(4-pyridylmethyl)pyrido[3,4-d]pyridazine], the melting point fell in the range of 227 to 228 °C. Moreover, half-maximal inhibition in series [1] (IC50) required 1000 nM.

Compound `Clc1ccc(Nc2nnc(Cc3ccncc3)c3ccncc23)cc1` [Example 76, 4-(4-Chloroanilino)-1-(4-pyridylmethyl)pyrido[3,4-d]pyridazine] yielded a melting point of 220 to 221 °C. The IC50 in series [1] was found to be 3200 nM.

Turning to `COc1ccccc1Nc1nnc(Cc2ccncc2)c2ccccc12` [Example 14, 1-(2-Methoxyanilino)-4-(4-pyridylmethyl)phthalazine], the melting point lay in the range of 190 to 191 °C. Also, 740 nM corresponded to half-maximal inhibition in series [1] (IC50).

As for `c1ccc(CNc2nnc(Cc3ccncc3)c3ccccc23)cc1` [Example 7, 1-Benzylamino-4-(4-pyridylmethyl)phthalazine], the melting point lay within 137 to 138 °C. In series [1], this compound showed an IC50 of 640 nM.

Take `c1ccc2c(NC3CCCC3)nnc(Cc3ccncc3)c2c1` [Example 58, 1-Cyclopentylamino-4-(4-pyridylmethyl)phthalazine]: the melting point was 163 to 165 °C. In series [1], this compound came in with an IC50 of 7300 nM.

On to `CSc1cccc(Nc2nnc(Cc3ccncc3)c3ccccc23)c1` [Example 67D], for which the melting point lay within 148 to 149 °C. This compound showed an IC50 in series [1] of 401 nM.

With `Clc1ccc(Nc2nnc(Cc3ccncc3)c3ccccc23)cc1` [Example 1, 1-(4-Chloroanilino)-4-(4-pyridylmethyl)phthalazine dihydrochloride], the IC50 on PDGF-receptor kinase is roughly 1000 nM.

`COc1ccc(Nc2nnc(Cc3ccncc3)c3ccccc23)cc1` [Example 8, 1-(4-Methoxyanilino)-4-(4-pyridylmethyl)phthalazine] gave a melting point of 223 to 224 °C. In addition, in series [1], 330 nM corresponded to half-maximal inhibition (IC50).

In the case of `Oc1cccc(Oc2nnc(Cc3ccncc3)c3ccccc23)c1` [Example 56, 1-(3-Hydroxyphenoxy)-4-(4-pyridylmethyl)phthalazine], the melting point fell in the range of 206 to 207 °C. Further, the IC50 in series [1] was determined as 1000 nM.

Consider `Cc1cccc(Nc2nnc(Cc3ccncc3)c3ccccc23)c1` [Example 43, 1-(3-Methylanilino)-4-(4-pyridylmethyl)phthalazine], for which the melting point fell in the range of 141 to 143 °C. In series [1], this compound yielded an IC50 of 9070 nM.

As to `Clc1ccc(Nc2nnc(Cc3ccncc3)c3cccnc23)cc1` [Example 74, 8-(4-Chloroanilino)-5-(4-pyridylmethyl)pyrido[2,3-d]pyridazine], the melting point lay in the range of 196 to 197 °C. Moreover, the IC50 in series [1] was found to be 1000 nM.

In turn, `Fc1ccc(Nc2nnc(Cc3ccncc3)c3ccccc23)cc1Cl` [Example 42, 1-(3-Chloro-4-fluoroanilino)-4-(4-pyridylmethyl)phthalazine] registered a melting point of 185 to 187 °C. The midpoint of inhibition in series [1], the IC50, lay at 211 nM.

In the case of `Clc1ccc(Nc2nnc(Cc3ccncc3)c3ncccc23)cc1` [Example 73, 5-(4-Chloroanilino)-8-(4-pyridylmethyl)pyrido[2,3-d]pyridazine], the melting point lay within 220 to 222 °C. In series [1], this compound yielded a concentration for half-maximal inhibition (IC50) of 397 nM.

`CCc1ccc(Nc2nnc(Cc3ccncc3)c3ccccc23)cc1` [Example 44A, 1-(4-Ethylanilino)-4-(4-pyridylmethyl)phthalazine] had a melting point of 163 to 164 °C. For the same compound, in series [1], the 50% inhibitory concentration (IC50) is 277 nM.

One may read the melting point as the temperature, or range, at which the solid turns liquid. In general, IC50 refers to the point on the concentration scale where inhibition reaches its midpoint. The low end stands for higher potency, the high end for lower potency.
